Test results as given in patent US6355799B1, “Substituted benzene compounds, process for their preparation, and herbicidal and defoliant compositions containing them” (ISK Americas Incorporated, priority 1997, dated 2002).

Experiments:
Type in all cases: in vivo
[1] = tested on: upland rice (Oryza sp., var. Tebonnet, RICE); assay: Post-emerge test, crop safety; conditions: post-emerge, 14 days after application, rating scale 0-100
Summary of the method: (§1)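 Applied at 15–1000 g ai/ha from acetone in 187 l/ha spray volume. Post-emergence applications included 0.25% v/v non-ionic surfactant and reached plants sown 8–21 days before. Pre-emergence applications were incorporated by surface watering. Efficacy or crop damage was rated on a 0–100 scale after 14 days.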

[2] = tested on: field corn (Zea mays L., var. Dekalb 535, CORN); assay: Post-emerge test, crop safety; conditions: post-emerge, 14 days after application, rating scale 0-100
Summary of the method: as §1

[3] = tested on: redroot pigweed (Amaranthus retroflexus, AMARE); assay: Pre-emerge test, greenhouse herbicide activity screening; conditions: rated 14 days after application, 0 = no damage, 100 = complete death
Summary of the method: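 Sandy loam pots; pre-emerge: sown 1 d pre-spray, surface-watered after, then bottom-watered. Post-emerge: sown 8–21 d before, 2–3 leaf stage, + 0.25% v/v NIS, bottom-watered. Acetone, 187 l/ha track spray, 15–1000 g ai/ha. 0–100 injury score, day 14.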

[4] = tested on: barnyardgrass (Echinochloa crus-galli, ECHCG); assay: as above; conditions: rated 14 days after application, 0 = no damage, 100 = complete death
Summary of the method: as §1

[5] = tested on: large crabgrass (Digitaria sanguinalis, DIGSA); assay: as above; conditions: rated 14 days after application, 0 = no damage, 100 = complete death
Summary of the method: as §1

[6] = tested on: green foxtail (Setaria viridis, SETVI); assay: as above; conditions: rated 14 days after application, 0 = no damage, 100 = complete death
Summary of the method: as §1

[7] = tested on: lambsquarters (Chenopodium album, CHEAL); assay: as above; conditions: rated 14 days after application, 0 = no damage, 100 = complete death
Summary of the method: as §1

[8] = tested on: ivyleaf morningglory (Ipomoea hederacea, IPOHE); assay: as above; conditions: rated 14 days after application, 0 = no damage, 100 = complete death
Summary of the method: as §1

[9] = tested on: johnsongrass (Sorghum halepense, SORHA); assay: as above; conditions: rated 14 days after application, 0 = no damage, 100 = complete death
Summary of the method: as §1

[10] = tested on: common ragweed (Ambrosia artemisizfolia L., AMBEL); assay: as above; conditions: rated 14 days after application, 0 = no damage, 100 = complete death
Summary of the method: as §1

[11] = tested on: sicklepod (Cassia obtusifolia, CASOB); assay: as above; conditions: rated 14 days after application, 0 = no damage, 100 = complete death
Summary of the method: as §1

[12] = tested on: velvetleaf (Abutilon theophrasti, ABUTH); assay: as above; conditions: rated 14 days after application, 0 = no damage, 100 = complete death
Summary of the method: as §1

[13] = tested on: upland rice (Oryza sp., var. Tebonnet, RICE); assay: Pre-emerge test, crop safety; conditions: rated 14 days after application, 0 = no damage, 100 = complete death
Summary of the method: (§2)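 Plants grown in 10 cm pots of sandy loam mix received acetone-dissolved compounds through a moving flat-fan nozzle. Doses ranged from 15 to 1000 g ai/ha. Pre-emerge pots were seeded one day earlier, post-emerge pots 8–21 days earlier. Fourteen days on, each pot was graded 0–100 for damage.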

[14] = tested on: field corn (Zea mays L., var. Dekalb 535, CORN); assay: Pre-emerge test, crop safety; conditions: rated 14 days after application, 0 = no damage, 100 = complete death
Summary of the method: as §2

[15] = tested on: barnyardgrass (Echinochloa crus-galli, ECHCG); assay: Post-emerge test, greenhouse herbicide activity screening; conditions: post-emerge, 14 days after application, rating scale 0-100
Summary of the method: as §2

[16] = tested on: large crabgrass (Digitaria sanguinalis, DIGSA); assay: as above; conditions: post-emerge, 14 days after application, rating scale 0-100
Summary of the method: as §2

[17] = tested on: green foxtail (Setaria viridis, SETVI); assay: as above; conditions: post-emerge, 14 days after application, rating scale 0-100
Summary of the method: as §2

[18] = tested on: lambsquarters (Chenopodium album, CHEAL); assay: as above; conditions: post-emerge, 14 days after application, rating scale 0-100
Summary of the method: as §2

[19] = tested on: redroot pigweed (Amaranthus retroflexus, AMARE); assay: as above; conditions: post-emerge, 14 days after application, rating scale 0-100
Summary of the method: as §2

[20] = tested on: ivyleaf morningglory (Ipomoea hederacea, IPOHE); assay: as above; conditions: post-emerge, 14 days after application, rating scale 0-100
Summary of the method: as §2

[21] = tested on: johnsongrass (Sorghum halepense, SORHA); assay: as above; conditions: post-emerge, 14 days after application, rating scale 0-100
Summary of the method: as §2

[22] = tested on: common ragweed (Ambrosia artemisizfolia L., AMBEL); assay: as above; conditions: post-emerge, 14 days after application, rating scale 0-100
Summary of the method: as §2

[23] = tested on: sicklepod (Cassia obtusifolia, CASOB); assay: as above; conditions: post-emerge, 14 days after application, rating scale 0-100
Summary of the method: as §2

[24] = tested on: velvetleaf (Abutilon theophrasti, ABUTH); assay: as above; conditions: post-emerge, 14 days after application, rating scale 0-100
Summary of the method: as §2

## COc1c(Cl)cc(F)c(-n2c(=O)cc(C(F)(F)F)n(C)c2=O)c1NC(=O)c1cccc(Cl)c1 [2-54]
[1]; 63 g ai/ha
  phytotoxicity rating RICE: 90
[1]; 250 g ai/ha
  phytotoxicity rating RICE: 95
[2]; 63 g ai/ha
  phytotoxicity rating CORN: 80
[2]; 250 g ai/ha
  phytotoxicity rating CORN: 80
[3]; 63 g ai/ha
  Pre-emerge Herbicidal Activity, phytotoxicity rating (0-100), AMARE: 100
[3]; 250 g ai/ha
  Pre-emerge Herbicidal Activity, phytotoxicity rating (0-100), AMARE: 100
[4]; 63 g ai/ha
  Pre-emerge Herbicidal Activity, phytotoxicity rating (0-100), ECHCG: 90
[4]; 250 g ai/ha
  Pre-emerge Herbicidal Activity, phytotoxicity rating (0-100), ECHCG: 100
[5]; 63 g ai/ha
  Pre-emerge Herbicidal Activity, phytotoxicity rating (0-100), DIGSA: 100
[5]; 250 g ai/ha
  Pre-emerge Herbicidal Activity, phytotoxicity rating (0-100), DIGSA: 100
[6]; 63 g ai/ha
  Pre-emerge Herbicidal Activity, phytotoxicity rating (0-100), SETVI: 100
[6]; 250 g ai/ha
  Pre-emerge Herbicidal Activity, phytotoxicity rating (0-100), SETVI: 100
[7]; 63 g ai/ha
  Pre-emerge Herbicidal Activity, phytotoxicity rating (0-100), CHEAL: 100
[7]; 250 g ai/ha
  Pre-emerge Herbicidal Activity, phytotoxicity rating (0-100), CHEAL: 100
[8]; 63 g ai/ha
  Pre-emerge Herbicidal Activity, phytotoxicity rating (0-100), IPOHE: 85
[8]; 250 g ai/ha
  Pre-emerge Herbicidal Activity, phytotoxicity rating (0-100), IPOHE: 100
[9]; 63 g ai/ha
  Pre-emerge Herbicidal Activity, phytotoxicity rating (0-100), SORHA: 90
[9]; 250 g ai/ha
  Pre-emerge Herbicidal Activity, phytotoxicity rating (0-100), SORHA: 100
[10]; 63 g ai/ha
  Pre-emerge Herbicidal Activity, phytotoxicity rating (0-100), AMBEL: 100
[10]; 250 g ai/ha
  Pre-emerge Herbicidal Activity, phytotoxicity rating (0-100), AMBEL: 100
[11]; 63 g ai/ha
  Pre-emerge Herbicidal Activity, phytotoxicity rating (0-100), CASOB: 100
[11]; 250 g ai/ha
  Pre-emerge Herbicidal Activity, phytotoxicity rating (0-100), CASOB: 100
[12]; 63 g ai/ha
  Pre-emerge Herbicidal Activity, phytotoxicity rating (0-100), ABUTH: 100
[12]; 250 g ai/ha
  Pre-emerge Herbicidal Activity, phytotoxicity rating (0-100), ABUTH: 100
[13]; 63 g ai/ha
  Pre-emerge phytotoxicity rating (0-100), crop damage, RICE: 70
[13]; 250 g ai/ha
  Pre-emerge phytotoxicity rating (0-100), crop damage, RICE: 90
[14]; 63 g ai/ha
  Pre-emerge phytotoxicity rating (0-100), crop damage, CORN: 90
[14]; 250 g ai/ha
  Pre-emerge phytotoxicity rating (0-100), crop damage, CORN: 98
[15]; 63 g ai/ha
  phytotoxicity rating ECHCG: 20
[15]; 250 g ai/ha
  phytotoxicity rating ECHCG: 90
[16]; 63 g ai/ha
  phytotoxicity rating DIGSA: 10
[16]; 250 g ai/ha
  phytotoxicity rating DIGSA: 20
[17]; 63 g ai/ha
  phytotoxicity rating SETVI: 10
[17]; 250 g ai/ha
  phytotoxicity rating SETVI: 50
[18]; 63 g ai/ha
  phytotoxicity rating CHEAL: 100
[18]; 250 g ai/ha
  phytotoxicity rating CHEAL: 100
[19]; 63 g ai/ha
  phytotoxicity rating AMARE: 100
[19]; 250 g ai/ha
  phytotoxicity rating AMARE: 100
[20]; 63 g ai/ha
  phytotoxicity rating IPOHE: 100
[20]; 250 g ai/ha
  phytotoxicity rating IPOHE: 100
[21]; 63 g ai/ha
  phytotoxicity rating SORHA: 50
[21]; 250 g ai/ha
  phytotoxicity rating SORHA: 80
[22]; 63 g ai/ha
  phytotoxicity rating AMBEL: 90
[22]; 250 g ai/ha
  phytotoxicity rating AMBEL: 100
[23]; 63 g ai/ha
  phytotoxicity rating CASOB: 90
[23]; 250 g ai/ha
  phytotoxicity rating CASOB: 100
[24]; 63 g ai/ha
  phytotoxicity rating ABUTH: 100
[24]; 250 g ai/ha
  phytotoxicity rating ABUTH: 100
